Results on one compound are retold here after article PMC10804683, “Identification of the pyridoxal 5′‐phosphate allosteric site in human pyridox(am)ine 5′‐phosphate oxidase” (Protein Science : A Publication of the Protein Society, 2024).

One may read the Kd as the constant that tells how readily two partners part at equilibrium.

Assay [1] concerns the target T1, human PNPO F48A/E50L/R161C/R258L variant (Homo sapiens, UniProt Q9NVS9, E50L/F48A/R161C/R258L).
T1 construct: a main form corresponding to the entire protein; made in house; host or cells: E. coli BL21(DE3)
T1 sequence (Q9NVS9 1-261 F48A/E50L/R161C/R258L): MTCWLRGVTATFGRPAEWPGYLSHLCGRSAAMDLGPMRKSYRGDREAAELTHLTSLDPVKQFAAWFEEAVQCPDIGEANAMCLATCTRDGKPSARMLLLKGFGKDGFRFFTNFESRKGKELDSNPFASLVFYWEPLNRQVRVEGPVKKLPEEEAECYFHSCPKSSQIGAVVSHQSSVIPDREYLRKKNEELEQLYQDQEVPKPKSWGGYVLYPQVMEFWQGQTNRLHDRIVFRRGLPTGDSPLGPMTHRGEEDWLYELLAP
The experiment in a line: PLP binding by DSF, F48A/E50L/R161C/R258L. The source says:
(§1) PLP binding to PNPO can be detected and quantitatively measured using differential scanning fluorimetry (DSF) and also by measuring FMN fluorescence changes. We had previously attributed DSF changes to PLP binding at the active site, while FMN fluorescence changes were attributed to PLP binding at the allosteric site (Barile et al., [2019], [2020]). Previous experiments carried out with the PNPO R161C variant, affecting a residue that is essential for substrate binding and catalysis (and therefore also for PLP binding at the active site), confirms that DSF measurements only report PLP binding at the active site (Barile et al., [2021]; Table 1). The dissociation constant values obtained with DSF are almost the same for the three variants and doubled with respect to the wild type enzyme (Figure 2, Table 1). This behavior reflects the decrease of affinity of these variants for the substrates compared to the wild type PNPO. We expected to observe no FMN fluorescence changes upon titration of the variants with PLP. However, this was not the case, and the dissociation constant values obtained by observing the FMN fluorescence emission were only up to threefold larger in the variants with respect to wild type PNPO (Figure 3). […] To check the second possibility, we measured intrinsic fluorescence changes of wild type and variant apo‐forms (i.e., without FMN) upon PLP titration. […]
On the technique in general: DSF heats the sample and reads unfolding from a dye or from intrinsic fluorescence.

For assay [2], the target named is human PNPO R161C variant (holo-enzyme). Details: method as in Barile et al. ([2021]). Particulars: FMN fluorescence changes, ref Barile et al. ([2021]), read-out: PLP binding KD^FLUO; cited from earlier work.
The target of assay [3] is T2, human PNPO F48A/E50L/H248N/R258L variant (holo-enzyme) (Homo sapiens, UniProt Q9NVS9, E50L/F48A/H248N/R258L).
T2 construct: a main form corresponding to the entire protein; made in house; host or cells: E. coli BL21(DE3)
T2 sequence (Q9NVS9 1-261 F48A/E50L/H248N/R258L): T1 sequence (Q9NVS9 1-261 F48A/E50L/R161C/R258L) with C161R, H248N
The experiment in a line: PLP binding by FMN fluorescence changes, holo quadruple variant. Particulars: 100 nM enzyme, read-out: PLP binding KD^FLUO.
Excerpt: as §1, with “The dissociation constant values obtained with DSF are almost the same for the three variants and doubled with respect to the wild type enzyme (Figure 2, Table 1). This behavior reflects the decrease of affinity of these variants for the substrates compared to the wild type PNPO.” left out
Analyses of PLP binding, based on FMN fluorescence increase observed upon binding of PLP to PNPO, were performed as described in Barile et al. ([2020]). […] Emission spectra were recorded from […], with excitation and emission slits set at 3 and 5 nm, respectively. […]

SMILES strings stand for the structures. Numbering of substitutions follows the chain as printed.

Regarding `Cc1ncc(COP(=O)(O)O)c(C=O)c1O` [PLP, pyridoxal 5′‐phosphate], the “PLP binding KD^DSF” value in assay [1] is “No binding”. Further, the Kd was 530 ± 80 nM in assay [2] and 2850 ± 250 nM in assay [3].
